Numbered stars: 1 amine (or outer) side, 2 acyl side, 3 side chain; on linkers, the order of the positions; unused ones are H or OH. Bridge positions count the residues as written; N and C are the ends. Square brackets hold non-standard residues; d marks the D form. Side chains are listed from the residue outwards. Peptide text beside a SMILES is read from it. * marks the point of attachment. ξ: configuration not given here. NH(CH2)2(4-DOTA-piperazinyl) = O=C(O)CN1CCN(CC(=O)O)CCN(CC(=O)N2CCN(CCN*)CC2)CCN(CC(=O)O)CC1; NH(CH2)2O(CH2)2NHDOTA = O=C(O)CN1CCN(CC(=O)O)CCN(CC(=O)NCCOCCN*)CCN(CC(=O)O)CC1; X4 = O=C(O)CN1CCN(CC(=O)O)CCN(CC(=O)N2CCc3cc(C(=O)*)ccc3C2)CCN(CC(=O)O)CC1; X5 = CCCCCC(=O)N[C@@H](CSCc1cccc(C[*:2])c1)C(=O)N1CCC[C@@H](NC(=O)[*:1])C1; NH(CH2)5NHDOTA = O=C(O)CN1CCN(CC(=O)O)CCN(CC(=O)NCCCCCN*)CCN(CC(=O)O)CC1; X2 = O=C(O)CN1CCN(CC(=O)O)CCN(CC(=O)N2CCN(CCCN*)CC2)CCN(CC(=O)O)CC1; X3 = O=C(O)CN1CCN(CC(=O)O)CCN(CC(=O)NCCOCCOCCOCCN*)CCN(CC(=O)O)CC1; DOTA = O=C(O)CN1CCN(CC(=O)O)CCN(CC(=O)*)CCN(CC(=O)O)CC1; Azetidine3carboxylic = O=C(C1CN([*:1])C1)[*:2]; Pyridine(3,5-bisCH2) = c1ncc(C[*:2])cc1C[*:1]; mXylylene = c1cc(C[*:1])cc(C[*:2])c1; Ethylenediamine = C(CN[*:2])N[*:1]; Cha = N[C@@H](CC1CCCCC1)C(=O)O; Hexanoyl = CCCCCC(=O)*; CO = O=C([*:1])[*:2]; ξP = O=C(O)C1CCCN1; ξC = NC(CS)C(=O)O; NHBu = CCCCN*

The target in one test is T1, FAP protein (Homo sapiens, UniProt Q12884).
T1 construct: purchased Sinobiological
T1 sequence (Q12884 1-760): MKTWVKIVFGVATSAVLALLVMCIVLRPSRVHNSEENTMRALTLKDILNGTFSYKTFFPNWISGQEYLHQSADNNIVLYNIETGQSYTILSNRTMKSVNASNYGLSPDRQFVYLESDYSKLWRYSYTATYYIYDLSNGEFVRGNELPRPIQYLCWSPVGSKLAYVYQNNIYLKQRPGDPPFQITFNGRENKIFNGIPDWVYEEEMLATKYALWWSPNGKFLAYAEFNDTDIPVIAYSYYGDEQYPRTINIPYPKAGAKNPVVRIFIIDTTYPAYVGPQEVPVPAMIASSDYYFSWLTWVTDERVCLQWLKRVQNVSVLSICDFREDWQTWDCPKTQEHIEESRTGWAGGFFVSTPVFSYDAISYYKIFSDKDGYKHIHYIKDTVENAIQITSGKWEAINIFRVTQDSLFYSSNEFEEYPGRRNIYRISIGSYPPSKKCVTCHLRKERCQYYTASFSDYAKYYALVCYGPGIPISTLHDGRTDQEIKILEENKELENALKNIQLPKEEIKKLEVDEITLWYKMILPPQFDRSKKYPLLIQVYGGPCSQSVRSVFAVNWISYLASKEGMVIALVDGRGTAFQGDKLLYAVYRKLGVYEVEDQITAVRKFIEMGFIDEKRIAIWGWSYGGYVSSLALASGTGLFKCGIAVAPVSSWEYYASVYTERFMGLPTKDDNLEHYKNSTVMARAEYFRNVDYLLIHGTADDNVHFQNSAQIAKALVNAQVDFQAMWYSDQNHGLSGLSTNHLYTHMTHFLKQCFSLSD
Nature of the test: Biacore test of compound affinity to FAP protein. Conditions: Biacore 8K, SA chip, 15° C., 1:1 binding model. As for the experimental part:
The Biacore 8K (Cytiva) instrument was used to detect ligand binding of the FAP protein (Sinobiological). FAP protein was captured on the SA chip. […] The sensor surface was conditioned by injecting 1M NaCl three consecutive times in 50 mM NaOH. After each ligand injection, additional cleaning was performed using isopropanol in 1M NaCl and 50 mM NaOH (flow path 1 and 2, flow rate of 10 μL/min, injection time of 60 s). […] The analyte was run under the following conditions: analysis temperature of 15° C., analysis step=all set to LMW kinetics; cycle type=single cycle (contact time of 90 s, dissociation time of 1800 s, flow rate of 30 μL/min, flow channels 1 and 2); channel detection=2-1. Data was evaluated using the Biacore Insight Evaluation Software, and the data were fitted to a 1:1 binding model. The Biacore results are shown in Table 2 below: pKD=−Log KD, where KD is the binding affinity of the compound to the FAP protein as measured by Biacore.
As for `CCCCNC(=O)N[C@H]1CSCc2cccc(c2)CSC[C@@H](C(=O)N[C@@H](CCC(=O)NCCN2CCN(C(=O)CN3CCN(CC(=O)O)CCN(CC(=O)O)CCN(CC(=O)O)CC3)CC2)C(=O)O)NC(=O)[C@H](CC2CCCCC2)NC(=O)[C@H](CCC(N)=O)NC(=O)[C@H]([C@@H](C)O)NC(=O)[C@@H]2CCCN2C(=O)C2CN(C2)C1=O` [JHDC46, nBu-urea-[Cys(3MePy)-hhy39-Pro-Thr-Gln-hhy34-Cys]-Glu-(aminoethylpiperazine-DOTA)-OH] ({NHBu-CO}-C[Azetidine3carboxylic]PTQ[Cha]CE(NH(CH2)2(4-DOTA-piperazinyl))-OH; linker 1-7 via mXylylene), the “pKD (FAP)” value is recorded as “B (B: 7<pKD<8)”.

The same test, now with this note: Biacore 8K, SA chip, 15° C., 1:1 binding model; read-out: pKD (FAP) (converted).
Regarding `CCCCNC(=O)N[C@H]1CSCc2cccc(c2)CSCC(C(=O)N[C@@H](CCC(=O)NCCNC(=O)c2ccc3c(c2)CCN(C(=O)CN2CCN(CC(=O)O)CCN(CC(=O)O)CCN(CC(=O)O)CC2)C3)C(=O)O)NC(=O)[C@H](Cc2ccccc2)NC(=O)[C@H](CCC(N)=O)NC(=O)[C@H]([C@@H](C)O)NC(=O)C2CCCN2C(=O)C2CN(C2)C1=O` (stereo partly drawn) [JHDC26, nBu-urea-[Cys(3MeBn)-hhy39-Pro-Thr-Gln-Phe-Cys]-Glu-(EDA-hhy02-DOTA)-OH] ({NHBu-CO}-C[Azetidine3carboxylic][ξP]TQF[ξC]E([Ethylenediamine-X4])-OH; linker 1-7 via mXylylene), the Kd was 10 to 100 nM.

Regarding `CCCCCC(=O)N[C@H]1CSCc2cccc(c2)CSCC(C(=O)N[C@@H](CCC(=O)NCCOCCNC(=O)CN2CCN(CC(=O)O)CCN(CC(=O)O)CCN(CC(=O)O)CC2)C(=O)O)NC(=O)CNC(=O)[C@H](CC2CCCCC2)NC(=O)[C@H](CCC(N)=O)NC(=O)[C@H]([C@@H](C)O)NC(=O)C2CCCN2C(=O)C2CN(C2)C1=O` (stereo partly drawn) [JHDC17, Hex[Cys(3MeBn)-hhy39-Pro-Thr-Gln-hhy34-Gly-Cys]-Glu-(DAPEG2-DOTA)-OH] (Hexanoyl-C[Azetidine3carboxylic][ξP]TQ[Cha]G[ξC]E(NH(CH2)2O(CH2)2NHDOTA)-OH; linker 1-8 via mXylylene), the Kd was 10 to 100 nM. Regarding `CCCCNC(=O)N[C@H]1CSCc2cccc(c2)CSC[C@@H](C(=O)N[C@@H](CCC(=O)NCCN2CCN(C(=O)CN3CCN(CC(=O)O)CCN(CC(=O)O)CCN(CC(=O)O)CC3)CC2)C(=O)O)NC(=O)[C@H](Cc2ccccc2)NC(=O)[C@H](CCC(N)=O)NC(=O)[C@H]([C@@H](C)O)NC(=O)C2CCCN2C(=O)C2CN(C2)C1=O` (stereo partly drawn) [JHDC50, nBu-urea-[Cys(3MeBn)-hhy39-Pro-Thr-Gln-Phe-Cys]-Glu-(aminoethylpiperazine-DOTA)-OH] ({NHBu-CO}-C[Azetidine3carboxylic][ξP]TQFCE(NH(CH2)2(4-DOTA-piperazinyl))-OH; linker 1-7 via mXylylene), the Kd was 10 to 100 nM. Consider `CCCCCC(=O)N[C@H]1CSCc2cccc(c2)CSCC(C(=O)N[C@@H](CCC(=O)NCCCCCNC(=O)CN2CCN(CC(=O)O)CCN(CC(=O)O)CCN(CC(=O)O)CC2)C(=O)O)NC(=O)[C@H](Cc2ccccc2)NC(=O)[C@H](CCC(N)=O)NC(=O)[C@H]([C@@H](C)O)NC(=O)C2CCCN2C(=O)C2CN(C2)C1=O` (stereo partly drawn) [JHDC29, Hex[Cys(3MeBn)-hhy39-Pro-Thr-Gln-Phe-Cys]-Glu-(PDA-DOTA)-OH] (Hexanoyl-C[Azetidine3carboxylic][ξP]TQF[ξC]E(NH(CH2)5NHDOTA)-OH; linker 1-7 via mXylylene), for which the Kd is 10 to 100 nM. `CCCCCC(=O)N[C@H]1CSCc2cccc(c2)CSCC(C(=O)N[C@@H](CCCCNC(=O)CN2CCN(CC(=O)O)CCN(CC(=O)O)CCN(CC(=O)O)CC2)C(=O)O)NC(=O)[C@H](Cc2ccccc2)NC(=O)[C@H](CCC(N)=O)NC(=O)[C@H]([C@@H](C)O)NC(=O)C2CCCN2C(=O)N[C@@H]2CCCN(C2)C1=O` (stereo partly drawn) [JHDC07, Hex[Cys(3MeBn)-hhy44(NH)—CO-Pro-Thr-Gln-Phe-Cys]-Lys-(DOTA)-OH] ([ξP]TQF[ξC]K(DOTA)-OH; linker N-5 via X5): the Kd was 10 to 100 nM. On to `CCCCCC(=O)N[C@H]1CSSCC(C(=O)N[C@@H](CCC(=O)NCCOCCNC(=O)CN2CCN(CC(=O)O)CCN(CC(=O)O)CCN(CC(=O)O)CC2)C(=O)O)NC(=O)[C@H](Cc2ccccc2)NC(=O)[C@H](CCC(N)=O)NC(=O)[C@H]([C@@H](C)O)NC(=O)C2CCCN2C(=O)C2CN(C2)C1=O` (stereo partly drawn) [JHDC30, Hex[Cys(SS)-hhy39-Pro-Thr-Gln-Phe-Cys]-Glu-(DAPEG2-DOTA)-OH] (Hexanoyl-C[Azetidine3carboxylic][ξP]TQF[ξC]E(NH(CH2)2O(CH2)2NHDOTA)-OH; disulfide 1-7), for which the Kd was 10 to 100 nM. For the compound `CCCCCC(=O)N[C@H]1CSCc2cccc(c2)CSC[C@@H](C(=O)NCCOCCNC(=O)CN2CCN(CC(=O)O)CCN(CC(=O)O)CCN(CC(=O)O)CC2)NC(=O)[C@H](Cc2ccccc2)NC(=O)[C@H](CCC(N)=O)NC(=O)[C@H]([C@@H](C)O)NC(=O)[C@@H]2CCCN2C(=O)C2CN(C2)C1=O` [JHDC10, Hex[Cys(3MeBn)-hhy39-Pro-Thr-Gln-Phe-Cys]-DAPEG2-DOTA] (Hexanoyl-C[Azetidine3carboxylic]PTQFC-{NH(CH2)2O(CH2)2NHDOTA}; linker 1-7 via mXylylene), the Kd is 10 to 100 nM. Turning to `CCCCCC(=O)N[C@H]1CSCc2cccc(c2)CSCC(C(=O)N[C@@H](CCC(=O)NCCOCCNC(=O)CN2CCN(CC(=O)O)CCN(CC(=O)O)CCN(CC(=O)O)CC2)C(=O)O)NC(=O)[C@H](CC2CCCCC2)NC(=O)[C@H](CCC(N)=O)NC(=O)[C@H]([C@@H](C)O)NC(=O)C2CCCN2C(=O)C2CN(C2)C1=O` (stereo partly drawn) [JHDC05, Hex[Cys(3MeBn)-hhy39-Pro-Thr-Gln-hhy34-Cys]-Glu-(DAPEG2-DOTA)-OH] (Hexanoyl-C[Azetidine3carboxylic][ξP]TQ[Cha][ξC]E(NH(CH2)2O(CH2)2NHDOTA)-OH; linker 1-7 via mXylylene), the Kd was under 10 nM. The same measure, in the same setting: next, `CCCCNC(=O)N[C@H]1CSCc2cccc(c2)CSCC(C(=O)N[C@@H](CCC(=O)NCCCCCNC(=O)CN2CCN(CC(=O)O)CCN(CC(=O)O)CCN(CC(=O)O)CC2)C(=O)O)NC(=O)[C@H](Cc2ccccc2)NC(=O)[C@H](CCC(N)=O)NC(=O)[C@H]([C@@H](C)O)NC(=O)C2CCCN2C(=O)C2CN(C2)C1=O` (stereo partly drawn) [JHDC28, nBu-urea-[Cys(3MeBn)-hhy39-Pro-Thr-Gln-Phe-Cys]-Glu-(PDA-DOTA)-OH] ({NHBu-CO}-C[Azetidine3carboxylic][ξP]TQF[ξC]E(NH(CH2)5NHDOTA)-OH; linker 1-7 via mXylylene): 10 to 100 nM. Still for that read-out and setting: the same measure for `CCCCCC(=O)N[C@H]1CSCc2cccc(c2)CSCC(C(=O)N[C@@H](CCC(=O)NCCCN2CCN(C(=O)CN3CCN(CC(=O)O)CCN(CC(=O)O)CCN(CC(=O)O)CC3)CC2)C(=O)O)NC(=O)[C@H](Cc2ccccc2)NC(=O)[C@H](CCC(N)=O)NC(=O)[C@H]([C@@H](C)O)NC(=O)C2CCCN2C(=O)C2CN(C2)C1=O` (stereo partly drawn) [JHDC45, Hex-[Cys(3MeBn)-hhy39-Pro-Thr-Gln-Phe-Cys]-Glu-(aminopropylpiperazine-DOTA)-NH2] (Hexanoyl-C[Azetidine3carboxylic][ξP]TQF[ξC]E(X2)-OH; linker 1-7 via mXylylene): under 10 nM; for `CCCCCC(=O)N[C@H]1CSCc2cncc(c2)CSCC(C(=O)N[C@@H](CCC(=O)NCCOCCNC(=O)CN2CCN(CC(=O)O)CCN(CC(=O)O)CCN(CC(=O)O)CC2)C(=O)O)NC(=O)[C@H](Cc2ccccc2)NC(=O)[C@H](CCC(N)=O)NC(=O)[C@H]([C@@H](C)O)NC(=O)C2CCCN2C(=O)C2CN(C2)C1=O` (stereo partly drawn) [JHDC32, Hex[Cys(3MePy)-hhy39-Pro-Thr-Gln-Phe-Cys]-Glu-(DAPEG2-DOTA)-OH] (Hexanoyl-C[Azetidine3carboxylic][ξP]TQF[ξC]E(NH(CH2)2O(CH2)2NHDOTA)-OH; linker 1-7 via Pyridine(3,5-bisCH2)): 10 to 100 nM. On the same count and under the same terms, next, `CCCCCC(=O)N[C@H]1CSCc2cccc(c2)CSCC(C(=O)N[C@@H](CCC(=O)NCCOCCOCCOCCNC(=O)CN2CCN(CC(=O)O)CCN(CC(=O)O)CCN(CC(=O)O)CC2)C(=O)O)NC(=O)[C@H](CC2CCCCC2)NC(=O)[C@H](CCC(N)=O)NC(=O)[C@H]([C@@H](C)O)NC(=O)C2CCCN2C(=O)C2CN(C2)C1=O` (stereo partly drawn) [JHDC16, Hex[Cys(3MeBn)-hhy39-Pro-Thr-Gln-hhy34-Cys]-Glu-(DAPEG4-DOTA)-OH] (Hexanoyl-C[Azetidine3carboxylic][ξP]TQ[Cha][ξC]E(X3)-OH; linker 1-7 via mXylylene): 10 to 100 nM.

Values taken from patent US20260274894A1, “CYCLIC POLYPEPTIDE COMPOUND AND USE THEREOF” (BIVISION PHARMACEUTICALS, INC., priority 2023, published 2026).
